Test results published in ChEMBL document CHEMBL1955771, “VX-322: a novel dual receptor tyrosine kinase inhibitor for the treatment of acute myelogenous leukemia” (J Med Chem, 2012).
pIC50: −log10 of the molar value.

How the values were obtained:
[1] = Half life in BALB/c mouse; format: ADME, organism-based; details: in vivo
MV4-11 = assay: cells; details: Homo sapiens, MV4-11, 72 h
Description: Cytotoxicity against human MV4-11 cells expressing FLT3-ITD mutation assessed as cell viability after 72 hrs by resazurin dye based fluorescence assay

cells [2] = details: Homo sapiens, Leukemia cell, 72 h
Description: Cytotoxicity against human primary leukemia cells isolated from acute myeloid leukemia patient expressing wild type FLT3 assessed as cell viability after 72 hrs by luciferase assay

Kasumi 1 = assay: cells; details: Homo sapiens, Kasumi 1, 72 h
Description: Cytotoxicity against human Kasumi-1 cells expressing c-KIT assessed as cell viability after 72 hrs by resazurin dye based fluorescence assay

[3] = molecular target: Receptor-type tyrosine-protein kinase FLT3 (Homo sapiens, UniProt P36888, ITD); assay: Inhibition of FLT3 ITD mutant mediated Stat5 phosphorylation in human MV4-11 cells by immunoblot analysis; format: cell-based
Sequence of Receptor-type tyrosine-protein kinase FLT3 (P36888 whole entry, looked up, change not shown): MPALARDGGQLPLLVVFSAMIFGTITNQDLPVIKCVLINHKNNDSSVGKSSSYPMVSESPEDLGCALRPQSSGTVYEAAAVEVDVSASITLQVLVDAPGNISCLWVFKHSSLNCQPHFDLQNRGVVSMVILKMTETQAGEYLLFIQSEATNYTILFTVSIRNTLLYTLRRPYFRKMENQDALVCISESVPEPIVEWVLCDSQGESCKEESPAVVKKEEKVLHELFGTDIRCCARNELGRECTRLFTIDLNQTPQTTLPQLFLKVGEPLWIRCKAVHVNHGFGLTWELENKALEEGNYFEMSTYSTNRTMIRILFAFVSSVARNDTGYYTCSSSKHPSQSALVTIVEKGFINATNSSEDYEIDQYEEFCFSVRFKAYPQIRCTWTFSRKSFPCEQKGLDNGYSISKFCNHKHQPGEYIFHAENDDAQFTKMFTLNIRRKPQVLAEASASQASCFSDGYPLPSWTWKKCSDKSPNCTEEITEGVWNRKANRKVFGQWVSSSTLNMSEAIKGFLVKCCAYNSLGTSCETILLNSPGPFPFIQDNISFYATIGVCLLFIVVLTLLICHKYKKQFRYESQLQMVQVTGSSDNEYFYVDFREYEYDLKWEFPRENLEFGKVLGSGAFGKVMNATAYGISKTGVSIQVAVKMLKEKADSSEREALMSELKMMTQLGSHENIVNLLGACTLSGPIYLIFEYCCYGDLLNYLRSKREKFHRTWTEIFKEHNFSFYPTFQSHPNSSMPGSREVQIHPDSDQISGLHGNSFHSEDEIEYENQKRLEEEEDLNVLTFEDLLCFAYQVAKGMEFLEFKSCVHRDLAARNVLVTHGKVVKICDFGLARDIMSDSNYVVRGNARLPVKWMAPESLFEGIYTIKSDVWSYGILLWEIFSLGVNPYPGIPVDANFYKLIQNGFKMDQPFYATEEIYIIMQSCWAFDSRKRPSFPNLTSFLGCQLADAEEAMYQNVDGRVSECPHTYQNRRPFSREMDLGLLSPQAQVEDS

cells [4] = details: Homo sapiens, Leukemia cell, 72 h; remark: listed apart in the source
Description: Cytotoxicity against human primary leukemia cells isolated from acute myeloid leukemia patient expressing FLT3-D835Y mutation assessed as cell viability after 72 hrs by luciferase assay

BaF3 [5] = assay: Antitumor activity against mouse BA/F3 cells expressing FLT3-ITD mutant xenografted in BALB/c mouse myeloproliferative model assessed as increase in host survival days at 5 mg/kg, po qd relative to control (reference value: 20 days); format: functional, organism-based; parameters: dose 5 mg/kg
BaF3 [6] = assay: Antitumor activity against mouse BA/F3 cells expressing FLT3-ITD mutant xenografted in BALB/c mouse myeloproliferative model assessed as increase in host survival days at 0.05 mg/kg, po qd relative to control (reference value: 20 days); format: functional, organism-based; parameters: dose 0.05 mg/kg
THP-1 = assay: cells; details: Homo sapiens, THP-1, 72 h
Description: Cytotoxicity against human THP1 cells assessed as cell viability after 72 hrs by resazurin dye based fluorescence assay

Nc1nc(Nc2ccc([C@H]3CC[C@H](N4CCOCC4)CC3)cc2)nn1-c1ccccn1
half-life [1]: 15 h | pIC50 (MV4-11): 9.70 | pIC50 (cells [2]): 7.70 | pIC50 (Kasumi 1): 7.52 | pIC50 [3]: 8.89 | pIC50 (cells [4]): 6.66 | MSD (BaF3 [5]): 62 days | MSD (BaF3 [6]): 24 days | pIC50 (THP-1): < 5.40
